Measured values reported in US20240360103A1, “COMPLEMENT INHIBITION” (Apellis Pharmaceuticals, Inc., priority 2021, published 2024).

These compounds were tested against C3 convertase (CVF:Bb) (Homo sapiens, UniProt P00751) (assay: C3 Convertase Assay (biochemical assay, compound contacted with CVF:Bb, then C3 substrate added)).
C3 convertase (CVF:Bb), sequence (P00751 260-764 limits assumed): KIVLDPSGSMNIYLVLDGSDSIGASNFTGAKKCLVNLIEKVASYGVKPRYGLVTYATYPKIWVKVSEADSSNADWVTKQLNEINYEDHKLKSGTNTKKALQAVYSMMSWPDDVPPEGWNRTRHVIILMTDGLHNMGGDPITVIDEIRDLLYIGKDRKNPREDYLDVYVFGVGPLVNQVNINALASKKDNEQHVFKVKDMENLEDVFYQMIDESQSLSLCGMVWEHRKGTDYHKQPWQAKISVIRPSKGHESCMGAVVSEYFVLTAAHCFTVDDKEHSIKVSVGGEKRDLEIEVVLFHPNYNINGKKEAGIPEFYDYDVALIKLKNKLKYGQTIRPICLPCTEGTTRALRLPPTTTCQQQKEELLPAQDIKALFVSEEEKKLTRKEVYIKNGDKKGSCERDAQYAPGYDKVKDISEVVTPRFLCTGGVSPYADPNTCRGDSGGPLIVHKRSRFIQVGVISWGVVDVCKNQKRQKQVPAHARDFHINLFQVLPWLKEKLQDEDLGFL
From the text: Various technologies are available for assessing provided compounds, compositions and methods. In some embodiments, a useful assay is an assay described below. […] In some embodiments, a purified, isolated or enriched C3 convertase is utilized. […] In some embodiments, a compound was first contacted with CVF:Bb, followed by addition of C3 substrates. As those skilled in the art will appreciate, products C3a and/or C3b could be detected through a number of technologies (e.g., antibodies specific for a product) and reduction of levels of one or both of them could be utilized to assess inhibition.
In the case of COc1cc(C)c2[nH]ccc2c1CN1CCN(c2cccnn2)C[C@H]1c1ccc(C(=O)O)cc1, the IC50 is reported as over 10000 nM.
COc1cc(C)c2[nH]ccc2c1CN1CCN(Cc2ncco2)C[C@H]1c1ccc(C(=O)O)cc1 gave an IC50 of 9110 nM.
In the case of COc1cc(C)c2[nH]ccc2c1CN1CCN(C)C[C@@H]1c1ccc(C(=O)O)cc1 (single isomer, unassigned), the IC50 is reported as over 10000 nM.
In the case of COc1cc(C)c2[nH]ccc2c1CN1CCN(CCO)CC1c1ccc(C(=O)O)cc1 (centres unmarked), the IC50 is reported as 119 nM.
With COc1cc(C)c2[nH]ccc2c1CN1CCN(CC(F)F)C[C@H]1c1ccc(C(=O)NS(=O)(=O)C2CC2)cc1 the IC50 was 520 nM.
For COc1cc(C)c2[nH]ccc2c1CN1CCN(CC(C)C)CC1c1ccc(C(=O)O)cc1 (centres unmarked), the IC50 was 4670 nM.
COc1cc(C)c2[nH]ccc2c1CN1CCN(c2ccccc2)CC1c1ccc(C(=O)O)cc1 (centres unmarked) showed an IC50 of over 10000 nM.
For COc1cc(C)c2[nH]ccc2c1CN1CCN(C2CC2)C[C@H]1c1ccc(C(=O)O)cc1 (single isomer, unassigned), the IC50 was 96 nM.
For COc1cc(C)c2[nH]ccc2c1CN1CCN(C(C)=O)CC1c1ccc(C(=O)O)cc1 (centres unmarked), the IC50 was over 10000 nM.
With Cc1ccc(CN2CCN(C)CC2c2ccc(C(=O)O)cc2)c2cc[nH]c12 (centres unmarked) the IC50 was 479 nM.
With Cc1cc(C2CC2)c(CN2CCN(CC(F)(F)F)C[C@H]2c2ccc(C(=O)O)cc2)c2cc[nH]c12 the IC50 was 348 nM.
For COc1cc(Cl)c2[nH]ccc2c1CN1CCN(CC(F)F)C[C@H]1c1ccc(C(=O)O)cc1 [drawing 436], the IC50 was 1490 nM.
Work on COc1cc(C)c2[nH]ccc2c1CN1CCN(CCC(C)C)CC1c1ccc(C(=O)O)cc1 (centres unmarked) yielded an IC50 of 3200 nM.
Compound COc1cc(C)c2[nH]ccc2c1CN1CCN(Cc2ccccc2)CC1c1ccc(C(=O)O)cc1 (centres unmarked) has an IC50 of 5240 nM.
With COc1cc(C)c2[nH]ccc2c1CN1CCN(c2ncccn2)C[C@H]1c1ccc(C(=O)O)cc1 the IC50 was over 10000 nM.
COc1cc(C)c2[nH]ccc2c1CN1CCN(CC(F)F)C[C@@H]1c1ccc(C(=O)O)cc1 showed an IC50 of 80 nM.
COc1cc(C)c2[nH]ccc2c1CN1CCN(Cc2ncco2)C[C@@H]1c1ccc(C(=O)O)cc1 gave an IC50 of over 10000 nM.
Work on COc1cc(C)c2[nH]ccc2c1CN1CCN(C2CC2)C[C@@H]1c1ccc(C(=O)O)cc1 (single isomer, unassigned) yielded an IC50 of 4380 nM.
In the case of COc1cc(C)c2[nH]ccc2c1CN1CC2(CC2)N(C)C[C@H]1c1ccc(C(=O)O)cc1, the IC50 is reported as 7390 nM.
CCC(C)CN1CCN(Cc2c(OC)cc(C)c3[nH]ccc23)C(c2ccc(C(=O)O)cc2)C1 (centres unmarked) was tested, and the IC50 was 6590 nM.
COc1cc(Cl)c2[nH]ccc2c1CN1CCN(CC(F)(F)F)C[C@@H]1c1ccc(C(=O)O)cc1 showed an IC50 of over 10000 nM.
COc1cc(C)c2[nH]ccc2c1CN1CCN(CC(F)F)C[C@H]1c1ccc(C(=O)O)cc1 gave an IC50 of 28 nM.
COc1cc(C)c2[nH]ccc2c1CN1CCN(CC2CCC2)CC1c1ccc(C(=O)O)cc1 (centres unmarked) was tested, and the IC50 was 1350 nM.
CCC(C)N1CCN(Cc2c(OC)cc(C)c3[nH]ccc23)C(c2ccc(C(=O)O)cc2)C1 (centres unmarked) gave an IC50 of 405 nM.
In the case of COc1cc(C)c2[nH]ccc2c1CN1CCN(S(C)(=O)=O)CC1c1ccc(C(=O)O)cc1 (centres unmarked), the IC50 is reported as 9330 nM.
COc1cc(Cl)c2[nH]ccc2c1CN1CCN(CC(F)F)C[C@H]1c1ccc(C(=O)O)cc1 [drawing 446] was tested, and the IC50 was 3150 nM.
Compound CN1CCN(Cc2cccc3[nH]ccc23)C(c2ccc(C(=O)O)cc2)C1 (centres unmarked) has an IC50 of over 10000 nM.
COCCN1CCN(Cc2c(OC)cc(C)c3[nH]ccc23)C(c2ccc(C(=O)O)cc2)C1 (centres unmarked) was tested, and the IC50 was 221 nM.
For CCCCN1CCN(Cc2c(OC)cc(C)c3[nH]ccc23)C(c2ccc(C(=O)O)cc2)C1 (centres unmarked), the IC50 was 980 nM.
COc1cc(Cl)c2[nH]ccc2c1CN1CCN(CC(F)(F)F)C[C@H]1c1ccc(C(=O)O)cc1 gave an IC50 of 2350 nM.
COc1cc(C)c2[nH]ccc2c1C(=O)N1CCN(C)CC1c1ccc(C(=O)O)cc1 (centres unmarked) was tested, and the IC50 was over 10000 nM.
Work on COc1cc(C)c2[nH]ccc2c1CN1CCNCC1c1ccc(C(=O)O)cc1 (centres unmarked) yielded an IC50 of over 10000 nM.
For COc1cc(C)c2[nH]ccc2c1CN1CCN(C(C)C)CC1c1ccc(C(=O)O)cc1 (centres unmarked), the IC50 was 652 nM.
COc1cc(C)c2[nH]ccc2c1CN1CCN(C2CCCC2)CC1c1ccc(C(=O)O)cc1 (centres unmarked) was tested, and the IC50 was 3880 nM.
Cc1cc(C2CC2)c(CN2CCN(CC(F)F)C[C@@H]2c2ccc(C(=O)O)cc2)c2cc[nH]c12 gave an IC50 of 163 nM.
